Test results published in US8329686B2, “Isatin analogues and uses therefor” (Washington University, priority 2006, dated 2012).
Where two headings read alike, the source gives them in different places.

Experiments:
[1] = target: T1, caspase 7 (Homo sapiens, UniProt P55210); assay: Enzyme inhibition assay, caspase 7 (fluorogenic Ac-DEVD-AMC); format: biochemical
T1 construct: purchased Sigma-Aldrich (St. Louis, Mo.)
T1 sequence (P55210 24-198 limits assumed): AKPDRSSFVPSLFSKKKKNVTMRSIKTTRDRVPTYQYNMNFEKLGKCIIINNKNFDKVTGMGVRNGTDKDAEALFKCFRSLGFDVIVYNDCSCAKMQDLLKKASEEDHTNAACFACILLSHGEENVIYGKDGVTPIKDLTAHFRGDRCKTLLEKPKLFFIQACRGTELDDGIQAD
T1 sequence (P55210 207-303 limits assumed): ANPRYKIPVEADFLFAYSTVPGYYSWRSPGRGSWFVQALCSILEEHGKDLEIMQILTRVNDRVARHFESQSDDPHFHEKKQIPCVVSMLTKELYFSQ

[2] = target: T2, caspase 6 (Homo sapiens, UniProt P55212); assay: Enzyme inhibition assay, caspase 6 (fluorogenic Ac-VEID-AMC); format: biochemical
T2 construct: purchased Sigma-Aldrich (St. Louis, Mo.)
T2 sequence (P55212 24-179 limits assumed): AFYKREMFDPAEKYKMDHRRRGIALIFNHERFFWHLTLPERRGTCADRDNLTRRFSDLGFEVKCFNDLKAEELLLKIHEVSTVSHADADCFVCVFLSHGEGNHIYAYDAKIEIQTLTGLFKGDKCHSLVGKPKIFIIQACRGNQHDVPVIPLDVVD
T2 sequence (P55212 194-293 limits assumed): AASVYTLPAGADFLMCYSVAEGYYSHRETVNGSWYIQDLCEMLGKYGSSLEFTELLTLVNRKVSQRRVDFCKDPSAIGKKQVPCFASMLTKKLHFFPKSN
Protocol: (§1) Enzyme Assays. Inhibition of recombinant human caspase-3 and other caspases by the isatin analogues was assessed using a fluorometric assay by measuring the accumulation of a fluorogenic product, 7-amino-4-methylcoumarin (7-AMC).
(§2) Enzyme Inhibition Assays. Recombinant human caspases (3, 6, 7, and 8) and their peptide-specific substrates (Ac-DEVDAMC, Ac-VEID-AMC, Ac-DEVD-AMC, and Ac-IETD-AMC, respectively) were purchased from Sigma-Aldrich (St. Louis, Mo.) with the exception of caspase 1 and its substrate (Ac-YVAD-AMC), which were obtained from BIOMOL Research Laboratories (Plymouth Meeting, Pa.). The enzymatic activity of caspases was determined by measuring the accumulation of the fluorogenic product 7-amino-4-methylcoumarin (AMC). All assays were prepared in 96-well format at a volume of 210 μL per well and consisted of 100 mM Na+ HEPES (pH 7.4), 10% sucrose, 100 mM NaCl, 0.1% CHAPS, 5 mM 2-mercaptoethanol, 2 mM EDTA, 10 μM Ac-YVAD-AMC (caspase 1); 20 mMNa^+ HEPES (pH 7.4), 10% sucrose, 100 mMNaCl, 0.1% CHAPS, 2 mM EDTA, 10 μM Ac-DEVD-AMC (caspase 3); 20 mM Na^+ HEPES (pH 7.4), 10% sucrose, 100 mM NaCl, 0.1% CHAPS, 2 mM EDTA, 10 μM Ac-VEID-AMC (caspase 6); 20 mM Na+ HEPES (pH 7.4), 100 mM NaCl, 10% sucrose, 0.1% CHAPS, 5 mM 2-mercaptoethanol, 2 mM EDTA, 10 μM Ac-DEVD-AMC (caspase 7); 20 mM Na+ HEPES (pH 7.4), 10% sucrose, 100 mM NaCl, 0.1% CHAPS, 2 mM EDTA, 10 μM Ac-IETD-AMC (caspase 8).
(§3) Recombinant caspases were first assayed to determine the optimal concentration for each experiment. Optimal concentrations were based in the linear range of the enzyme activation curves. Peptide inhibitors with known IC50 values were tested together with the compounds as a control for each caspase assay. […] Peptide and nonpeptide inhibitors were dissolved in DMSO, and a 2 serial dilution was performed prior to screening in order to obtain desired concentrations. 10 μL was added to each well containing 100 μL caspase solution and allowed to incubate on ice for 30 min. […] The final concentration of DMSO in all wells was 5% of the total volume. In caspase-1 and caspase-7 assays, 10 mM 2-mercaptoethanol was added to the substrate solution for full activation of the enzymes.
(§4) Compounds were tested in duplicate, and IC50 curves were calculated for all inhibitors assayed. Final IC50s were the average of three independent experiments.

[3] = target: T3, caspase-3 (Homo sapiens, UniProt P42574); assay: Enzyme inhibition assay, caspase 3 (fluorogenic Ac-DEVD-AMC); format: biochemical
T3 construct: purchased Sigma-Aldrich (St. Louis, Mo.)
T3 sequence (P42574 29-175 limits assumed): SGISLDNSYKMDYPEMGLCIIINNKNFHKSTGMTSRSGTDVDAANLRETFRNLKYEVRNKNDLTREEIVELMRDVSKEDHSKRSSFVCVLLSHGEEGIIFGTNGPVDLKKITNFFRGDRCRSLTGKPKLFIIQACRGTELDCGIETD
T3 sequence (P42574 176-277 limits assumed): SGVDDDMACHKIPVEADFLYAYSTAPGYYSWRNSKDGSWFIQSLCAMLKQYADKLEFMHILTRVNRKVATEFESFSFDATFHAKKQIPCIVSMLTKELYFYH
Protocol: as §1, §2, §3, §4

[4] = target: T4, caspase 1 (Homo sapiens, UniProt P29466); assay: Enzyme inhibition assay, caspase 1 (fluorogenic Ac-YVAD-AMC); format: biochemical
T4 construct: purchased BIOMOL Research Laboratories (Plymouth Meeting, Pa.)
T4 sequence (P29466 120-297 limits assumed): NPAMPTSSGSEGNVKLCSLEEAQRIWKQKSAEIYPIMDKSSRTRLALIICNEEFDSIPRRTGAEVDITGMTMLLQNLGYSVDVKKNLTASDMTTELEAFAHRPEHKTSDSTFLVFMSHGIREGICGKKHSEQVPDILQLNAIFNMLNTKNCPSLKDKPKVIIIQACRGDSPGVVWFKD
T4 sequence (P29466 317-404 limits assumed): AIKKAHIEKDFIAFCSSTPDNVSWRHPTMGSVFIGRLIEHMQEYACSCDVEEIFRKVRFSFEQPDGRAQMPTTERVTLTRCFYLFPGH

[5] = target: T5, caspase 8 (Homo sapiens, UniProt Q14790); assay: Enzyme inhibition assay, caspase 8 (fluorogenic Ac-IETD-AMC); format: biochemical
T5 construct: purchased Sigma-Aldrich (St. Louis, Mo.)

[6] = Table 2, read-out: IC50 (nM) Caspase 7
[7] = Table 2, read-out: IC50 (nM) Caspase 6
[8] = Table 2, read-out: IC50 (nM) Caspase 3
[9] = Table 2, read-out: IC50 (nM) Caspase 1
[10] = Table 2, read-out: IC50 (nM) Caspase 8
[11] = Table 7, read-out: IC50 (nM) Casp-7
[12] = Table 7, read-out: IC50 (nM) Casp-6
[13] = Table 7, read-out: IC50 (nM) Casp-3
[14] = Table 7, read-out: IC50 (nM) Casp-1
[15] = Table 7, read-out: IC50 (nM) Casp-8

T5 sequence (Q14790 217-374 limits assumed): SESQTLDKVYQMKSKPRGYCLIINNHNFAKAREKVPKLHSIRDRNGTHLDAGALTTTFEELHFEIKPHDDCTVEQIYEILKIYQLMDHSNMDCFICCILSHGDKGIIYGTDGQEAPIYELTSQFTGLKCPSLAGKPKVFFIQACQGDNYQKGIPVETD
T5 sequence (Q14790 385-479 limits assumed): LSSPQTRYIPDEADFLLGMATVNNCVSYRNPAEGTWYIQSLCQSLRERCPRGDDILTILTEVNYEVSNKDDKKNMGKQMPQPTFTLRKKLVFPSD

Compound: O=C1C(=O)N(Cc2ccc(OCCF)cc2)c2ccc(S(=O)(=O)N3CC[C@H]3COc3cccnc3)cc21 [WC-II-101]
- IC50 ([1]; Table 1, read-out: IC50 (nM) Caspase 7): 17.6 ± 0.4 nM
- IC50 ([2]; Table 1, read-out: IC50 (nM) Caspase 6): 8700 nM
- IC50 ([3]; Table 1, read-out: IC50 (nM) Caspase 3): 3.6 ± 0.5 nM
- IC50 ([4]; Table 1, read-out: IC50 (nM) Caspase 1): > 10000 nM
- IC50 ([5]; Table 1, read-out: IC50 (nM) Caspase 8): > 50000 nM

Compound: N#CC(C#N)=C1C(=O)N(Cc2ccc(OCCF)cc2)c2ccc(S(=O)(=O)N3CC[C@H]3COc3cccnc3)cc21 [WC-II-104]
- IC50 [1, 6]: 22.7 ± 3.1 nM
- IC50 [2, 7]: 580 ± 55 nM
- IC50 [3, 8]: 7.1 ± 0.6 nM
- IC50 [4, 9]: 2900 nM
- IC50 [5, 10]: > 50000 nM

Compound: N#CC(C#N)=C1C(=O)Nc2ccc(S(=O)(=O)N3CCCC3COc3ccccc3)cc21 (stereo not shown) [Compound 26, 2-[2-Oxo-5-(2-phenoxymethyl-pyrrolidine-1-sulfonyl)-1,2-dihydro-indol-3-yl-idene]-malononitrile]
- IC50 [1, 6]: 1580 nM
- IC50 [1, 11]: 1580 ± 163 nM
- IC50 ([1]; read-out: IC50 for caspase-7): 1580 nM
- IC50 [2, 7]: 407 ± 15 nM
- IC50 [2, 12]: 407 ± 15 nM
- IC50 [3, 8]: 272 ± 25 nM
- IC50 [3, 13]: 272 ± 24.7 nM
- IC50 ([3]; read-out: IC50 for caspase-3): 272 nM
- IC50 [4, 9]: 1830 nM
- IC50 [4, 14]: 1830 ± 128 nM
- IC50 [5, 10]: > 50000 nM
- IC50 [5, 15]: > 50000 nM

Compound: N#CC(C#N)=C1C(=O)N(Cc2ccc(OCCF)cc2)c2ccc(S(=O)(=O)N3CCC[C@H]3COc3cccnc3)cc21 [WC-II-103]
- IC50 [1, 6]: 26 ± 5.2 nM
- IC50 [2, 7]: 770 ± 119 nM
- IC50 [3, 8]: 7.5 ± 0.2 nM
- IC50 [4, 9]: 3500 nM
- IC50 [5, 10]: > 50000 nM

Compound: N#CC(C#N)=C1C(=O)N(Cc2ccc(O)cc2)c2ccc(S(=O)(=O)N3CCC[C@H]3COc3ccccc3)cc21 [Compound 27c]
- IC50 [1, 6]: 126 ± 19 nM
- IC50 [1, 11]: 126 ± 19.3 nM
- IC50 ([1]; read-out: IC50 for caspase-7): 126 nM
- IC50 [2, 7]: 744 ± 48 nM
- IC50 [2, 12]: 744 ± 48 nM
- IC50 [3, 8]: 31.8 ± 6.2 nM
- IC50 [3, 13]: 31.8 ± 6.2 nM
- IC50 ([3]; read-out: IC50 for caspase-3): 31.8 nM
- IC50 [4, 9]: 2300 nM
- IC50 [4, 14]: 2300 ± 250 nM
- IC50 [5, 10]: > 50000 nM
- IC50 [5, 15]: > 50000 nM

Compound: O=C1Nc2ccc(S(=O)(=O)N3CC[C@H]3COc3ccccc3)cc2C1=NO [WC-II-52]
- IC50 [1, 6]: > 50000 nM
- IC50 [2, 7]: > 20000 nM
- IC50 [3, 8]: > 20000 nM
- potency as caspase-3/7 inhibitors (in words) ([3]; caspase-3/7): low potency
- IC50 [4, 9]: > 50000 nM
- IC50 [5, 10]: > 50000 nM

Compound: N#CC(C#N)=C1C(=O)N(Cc2ccccc2)c2ccc(S(=O)(=O)N3CCCC3COc3ccccc3)cc21 (stereo not shown) [Compound 27b, 2-[1-Benzyl-2-oxo-5-(2-phenoxymethyl-pyrrolidine-1-sulfonyl)-1,2-dihydroindol-3-yl-idene]-malononitrile]
- IC50 ([1]; IC50 (nM) Casp-7, Table 7): 51.7 ± 6.2 nM
- IC50 ([1]; IC50 (nM) Caspase 7, Table 2): 51.7 ± 6.2 nM
- IC50 ([1]; IC50 for caspase-7): 51.7 nM
- IC50 [2]: 918 ± 151 nM
- IC50 ([3]; IC50 (nM) Casp-3, Table 7): 27.8 ± 2.5 nM
- IC50 ([3]; IC50 (nM) Caspase 3, Table 2): 27.8 ± 2.5 nM
- IC50 ([3]; IC50 for caspase-3): 27.8 nM
- IC50 [4]: 6220 nM
- IC50 [5, 10]: > 50000 nM
- IC50 [5, 15]: > 50000 nM

Compound: CSc1ccc(CN2C(=O)C(=O)c3cc(S(=O)(=O)N4CCC[C@H]4COc4ccccc4)ccc32)cc1 [Compound 11d, (S)-1-(4-Methylthiobenzyl)-5-(2-phenoxymethyl-pyrrolidine-1-sulfonyl)-1H-indole-2,3-dione]
- melting point: 175.4 to 176.8 °C

Compound: CN1C(=O)C(=O)c2cc(S(=O)(=O)N3CCCC3COc3cccnc3)ccc21 (stereo not shown) [Compound 21a, 1-Methyl-5-(2-(pyridin-3-yl-oxymethyl)-pyrrolidine-1-sulfonyl)-1H-indole-2,3-dione]
- IC50 ([1]; Table 6, read-out: IC50 (nM) caspase-7): 94.9 ± 21.6 nM
- IC50 ([2]; Table 6, read-out: IC50 (nM) caspase-6): > 5000 nM
- IC50 ([3]; IC50 (nM) caspase-3, Table 6): 23.3 ± 3.1 nM
- IC50 ([4]; Table 6, read-out: IC50 (nM) caspase-1): > 10000 nM
- IC50 [5]: > 50000 nM
